US20120015907A1, “Furopyridine compounds and uses thereof” (NOVARTIS AG, priority 2010, published 2012)

Assays:
HCV polymerase = target: T1, HCV polymerase (Hepatitis C virus genotype 1b, UniProt Q9WMX2); assay: biochemical; conditions: polymerase assay of Biological Example 1; read-out: NS5B polymerase IC50
T1 construct: (His)6 (C)

[1] = test system: HCV replicon I389luc-ubi-neo/NS3-3'/ET in ET (Huh-lucubineo-ET) cells; assay: Replicon assay (Biological Example 2), luciferase read-out; type: cell-based; conditions: Hepatitis C virus, luciferase activity 48 hours after compound addition
Procedure: A cell line, ET (Huh-lucubineo-ET) is used for screening of compounds for inhibiting HCV RNA dependent RNA polymerase. The ET cell line is stably transfected with RNA transcripts harboring a I389luc-ubi-neo/NS3-3′/ET; replicon with firefly luciferase-ubiquitin-neomycin phosphotransferase fusion protein and EMCV-IRES driven NS3-5B polyprotein containing the cell culture adaptive mutations (E1202G; […]; K1846T) (Krieger at al, 2001 and unpublished). The ET cells are grown in DMEM (Dulbeco's Modified Eagle's Medium), supplemented with 10% fetal calf serum, 2 mM Glutamine, Penicillin (100 IU/mL)/Streptomycin (100 μg/mL), 1× nonessential amino acids, and 250 μg/mL G418 (“Geneticin”). Reagents are all available through Life Technologies (Bethesda, Md.). The cells are plated at 0.5-1.0×10^4 cells/well in the 96 well plates and incubated for 24 hrs before adding test compound. The compounds are added to the cells to achieve a final concentration of 0.1 nM to 50 μM and a final DMSO (dimethylsulfoxide) concentration of 0.5%. Luciferase activity is measured 48 hours later by adding a lysis buffer and the substrate (Catalog number Glo-lysis buffer E2661 and Bright-Glo luciferase system E2620 Promega, Madison, Wis.). Cells should not be too confluent during the assay. Percent inhibition of replication data is plotted relative to no compound control. To determine the EC50 (effective concentration at which 50% of the maximum inhibition is observed), a 10 point, 3-fold serial dilution for each compound is used, which spans a concentration range of 1000 fold. EC50 values were calculated by fitting % inhibition at each concentration to the following equation:
% inhibition=100%/[(EC50/[I])^b+1]
where b is Hill's coefficient.

Structure (SMILES) | IC50 (HCV polymerase) [nM] | IC50 [1] [nM]
CNC(=O)c1c(-c2ccc(C)cc2)oc2nc(N(CC[C@@H]3C[C@H]3C(=O)O)S(C)(=O)=O)c(C3CC3)cc12 [Example 28.1, (1R,2S)-2-(2-(N-(5-cyclopropyl-3-(methylcarbamoyl)-2-p-tolylfuro[2,3-b]pyridin-6-yl)methylsulfonamido)ethyl) cyclopropanecarboxylic acid] | 2 | ≤ 100
CNC(=O)c1c(-c2ccc(F)cc2)oc2nc(N(CCCCS(C)(=O)=O)S(C)(=O)=O)c(I)cc12 [Example 18.997, 2-(4-fluorophenyl)-5-iodo-N-methyl-6-(N-(4-(methylsulfonyl)butyl)methylsulfonamido)furo[2,3-b]pyridine-3-carboxamide] | 22 | ≤ 100
C=CCCN(CCCN(c1nc2oc(-c3ccc(F)cc3)c(C(=O)NC)c2cc1I)S(C)(=O)=O)S(C)(=O)=O [Example 23.994, 6-(N-(3-(N-(but-3-enyl)methylsulfonamido)propyl)methylsulfonamido)-2-(4-fluorophenyl)-5-iodo-N-methylfuro[2,3-b]pyridine-3-carboxamide] | 57 | ≤ 100
CCc1cc2c(C(=O)NC)c(-c3ccc(F)cc3)oc2nc1N(CCCC1C(=O)CCS1(=O)=O)S(C)(=O)=O (stereo not drawn) [Example 23.99, 5-Ethyl-2-(4-fluoro-phenyl)-6-{methanesulfonyl-[3-(1,1,3-trioxo-tetrahydrothiophen-2-yl)-propyl]-amino}-furo[2,3-b]pyridine-3-carboxylic acid methylamide] | 26 | ≤ 100
CNC(=O)c1c(-c2ccc(F)cc2)oc2nc(N(CCCC(C)(C)C(=O)OCC(C)C)S(C)(=O)=O)c(C3CC3)cc12 [Example 26, isobutyl 5-(N-(5-cyclopropyl-2-(4-fluorophenyl)-3-(methylcarbamoyl)furo[2,3-b]pyridin-6-yl)methylsulfonamido)-2,2-dimethylpentanoate] | 6 | ≤ 100
CNC(=O)c1c(-c2ccc(Cl)cc2)oc2nc(N(CCCS(C)(=O)=O)S(C)(=O)=O)c(C3CC3)cc12 [Example 25.5, 2-(4-chlorophenyl)-5-cyclopropyl-N-methyl-6-(N-(3-(methylsulfonyl)propyl)methylsuIfonamido)furo[2,3-b]pyridine-3-carboxamide] | 1 | ≤ 100
CNC(=O)c1c(-c2ccc(Cl)cc2)oc2nc(N(CCCC3CCCS3(=O)=O)S(C)(=O)=O)c(I)cc12 (stereo not drawn) [Example 18.98, 2-(4-Chloro-phenyl)-6-{[3-(1,1-dioxo-tetrahydrothiophen-2-yl)-propyl]-methanesulfonyl-amino}-5-iodo-furo[2,3-b]pyridine-3-carobxylic acid methylamide] | 4 | ≤ 100
CNC(=O)c1c(-c2ccc(C)cc2)oc2nc(N(C)S(C)(=O)=O)c(C3CC3)cc12 [Example 2.93, 5-cyclopropyl-N-methyl-6-(N-methylmethylsulfonamido)-2-p-tolylfuro[2,3-b]pyridine-3-carboxamide] | 4 | ≤ 100
CNC(=O)c1c(-c2ccc(C)cc2)oc2nc(N(CCCC(C)(C)C(=O)O)S(C)(=O)=O)c(C3CC3)cc12 [Example 24, 5-[(5-Cyclopropyl-3-methylcarbamoyl-2-p-tolyl-furo[2,3-b]pyridin-6-yl)-methanesulfonyl-amino]-2,2-dimethyl-pentanoic acid] | 1 | ≤ 100
CNC(=O)c1c(-c2ccc(Oc3ccccc3)cc2)oc2nc(N(CCCC(C)(C)C(=O)O)S(C)(=O)=O)c(C3CC3)cc12 [Example 27.4, 5-(N-(5-cyclopropyl-3-(methylcarbamoyl)-2-(4-phenoxyphenyl)furo[2,3-b]pyridin-6-yl)methylsulfonamido)-2,2-dimethylpentanoic acid] | 1 | ≤ 100
CNC(=O)c1c(-c2ccc(C)cc2)oc2nc(N(CCCCS(C)(=O)=O)S(C)(=O)=O)c(C3CC3)cc12 [Example 25.6, 5-cyclopropyl-N-methyl-6-(N-(4-(methylsulfonyl)butyl)methylsulfonamido)-2-p-tolylfuro[2,3-b]pyridine-3-carboxamide] | 2 | ≤ 100
CNC(=O)c1c(-c2ccc(F)cc2)oc2nc(N(CCCC3CCCS3(=O)=O)S(C)(=O)=O)c(I)cc12 (stereo not drawn) [Example 18.97, 6-{[3-(1,1-Dioxo-tetrahydrothiophen-2-yl)-propyl]-methanesulfonyl-amino}-2-(4-fluoro-phenyl)-5-iodo-furo[2,3-b]pyridine-3-carboxylic acid methylamide] | 32 | ≤ 100
CCc1cc2c(C(=O)NC)c(-c3ccc(F)cc3)oc2nc1N(CCCC1CCCS1(=O)=O)S(C)(=O)=O (single isomer, unassigned) [Example 22.991, 6-{[3-(1,1-Dioxo-tetrahydro-1lambdathiophen-2-yl)-propyl]-methanesulfonyl-amino}-5-ethyl-2-(4-fluoro-phenyl)-furo[2,3-b]pyridine-3-carboxylic acid methylamide] | 7 | ≤ 100
CNC(=O)c1c(-c2ccc(C)cc2)oc2nc(N(CCCS(C)(=O)=O)S(C)(=O)=O)c(C3CC3)cc12 [Example 25.3, 5-cyclopropyl-N-methyl-6-(N-(3-(methylsulfonyl)propyl)methylsulfonamido)-2-p-tolylfuro[2,3-b]pyridine-3-carboxamide] | 1 | ≤ 100
CNC(=O)c1c(-c2ccc(F)cc2)oc2nc3c(cc12)C(C)OCCN3S(C)(=O)=O (stereo not drawn) [Example 36.2, 2-(4-Fluoro-phenyl)-9-methanesulfonyl-5-methyl-5,7,8,9-tetrahydro-1,6-dioxa-9,10-diaza-cyclohepta[f]indene-3-carboxylic acid methylamide] | 35 | ≤ 100
CNC(=O)c1c(-c2ccc(C)cc2)oc2nc(N(CCC3CCS(=O)(=O)C3)S(C)(=O)=O)c(C3CC3)cc12 (stereo not drawn) [Example 26.1, 5-Cyclopropyl-6-{[2-(1,1-dioxo-tetrahydro-thiophen-3-yl)-ethyl]-methanesulfonyl-amino}-2-p-tolyl-furo[2,3-b]pyridine-3-carboxylic acid methylamide] | 1 | ≤ 100
CNC(=O)c1c(-c2ccc(Oc3ccc(F)cc3)cc2)oc2nc(N(CCCCC(=O)O)S(C)(=O)=O)c(C3CC3)cc12 [Example 27.2, 5-(N-(5-cyclopropyl-2-(4-(4-fluorophenoxy)phenyl)-3-(methylcarbamoyl)furo[2,3-b]pyridin-6-yl)methylsulfonamido) pentanoic acid] | 1 | ≤ 100
CNC(=O)c1c(-c2ccc(C)cc2)oc2nc(N(CCCCC(=O)OC)S(C)(=O)=O)c(C3CC3)cc12 [Example 25.2, methyl 5-(N-(5-cyclopropyl-3-(methylcarbamoyl)-2-p-tolylfuro[2,3-b]pyridin-6-yl)methylsulfonamido) pentanoate] | 3 | ≤ 100
CNC(=O)c1c(-c2ccc(F)cc2)oc2nc(N(C)S(C)(=O)=O)c(C3CC3)cc12 [Example 1, 5-Cyclopropyl-2-(4-fluoro-phenyl)-6-(methanesulfonyl-methyl-amino)-furo[2,3-b]pyridine-3-carboxylic acid methylamide] | 16 | ≤ 100
CNC(=O)c1c(-c2ccc(Oc3ccccc3)cc2)oc2nc(N(CCCCC(=O)O)S(C)(=O)=O)c(C3CC3)cc12 [Example 27, 5-(N-(5-cyclopropyl-3-(methylcarbamoyl)-2-(4-phenoxyphenyl)furo[2,3-b]pyridin-6-yl)methylsulfonamido) pentanoic acid] | 1 | ≤ 100
C=Cc1cc2c(C(=O)NC)c(-c3ccc(F)cc3)oc2nc1N(CCCCC(=O)OC)S(C)(=O)=O [Example 24.3, methyl 5-(N-(2-(4-fluorophenyl)-3-(methylcarbamoyl)-5-vinylfuro[2,3-b]pyridin-6-yl)methylsulfonamido) pentanoate] | 57 | ≤ 100
CCc1cc2c(C(=O)NC)c(-c3ccc(F)cc3)oc2nc1N(CCCN1CCCS1(=O)=O)S(C)(=O)=O [Example 23.1, 6-{[3-(1,1-Dioxo-isothiazolidin-2-yl)-propyl]-methanesulfonyl-amino}-5-ethyl-2-(4-fluoro-phenyl)-furo[2,3-b]pyridine-3-carboxylic acid methylamide] | 45 | ≤ 100
CNC(=O)c1c(-c2ccc(Cl)cc2)oc2nc(N(CCCC(C)(C)C(=O)O)S(C)(=O)=O)c(C3CC3)cc12 [Example 28.3, 5-(N-(2-(4-chlorophenyl)-5-cyclopropyl-3-(methylcarbamoyl)furo[2,3-b]pyridin-6-yl)methylsulfonamido)-2,2-dimethylpentanoic acid] | 2 | ≤ 100
CNC(=O)c1c(-c2ccc(C)cc2)oc2nc(N(C)S(C)(=O)=O)c(I)cc12 [Example 2.9, 5-iodo-N-methyl-6-(N-methylmethylsulfonamido)-2-p-tolylfuro[2,3-b]pyridine-3-carboxamide] | 16 | ≤ 100
